Laboratory results published in PubChem BioAssay AID179 (DTP/NCI, 2004).
Active and inactive are the calls of the source.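 The calls were made as follows: active = compounds giving half or more protection of infected cells from virus-caused growth loss, again on retest; inactive = the rest.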 Where a SMILES comes first, the peptide text is derived from it. The star is where a group is joined. Boc = CC(C)(C)OC(=O)*; OBn = c1ccc(CO*)cc1

Test system: CEM cells HIV-1 protection, formazan growth assay
Assay: NCI AIDS Antiviral Assay
Details: for IC50: measured here: growth of uninfected CEM cells
Summary of the method: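 Protection of CEM cells against HIV-1 measured as cell growth via soluble formazan read-out, with five concentrations tested on both infected and uninfected cells; failure to protect may reflect toxicity.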

Row | Structure (SMILES) | EC50 | IC50 | outcome
1 | CC(C)C(/C=C/c1ccc(Cl)c(Cl)c1)=N\NC(=O)N/N=C(/C=C/c1ccc(Cl)c(Cl)c1)C(C)C | > 200 µM | > 200 µM | –
2 | O=[N+]([O-])c1c(Cl)cccc1-c1c[nH]c(Cl)c1Cl | > 123 µM | 20.4 µM | –
3 | CC(=O)Oc1cc2oc(=O)cc(C)c2cc1OC(C)=O | – | – | inactive
4 | c1ccc2sc(SN3CCOCC3)nc2c1 | > 10.7 µM | > 10.7 µM | –
5 | COC(=O)/C(C#N)=C(\Nc1ccccc1)N1CCCC1 | > 200 µM | 138 µM | –
6 | CC(C)c1ccc2nc3ccc(C(=O)NCCN4CCN(c5ccccc5)CC4)cn3c(=O)c2c1 | > 200 µM | 14.8 µM | –
7 | O=C1Oc2c(ccc3ccccc23)C2OCNCC12 (stereo not given) | > 200 µM | 129 µM | –
8 | COC(=O)C(C)(C)C(OP(=O)(OC)OC)=C(C)C | > 891 µM | > 891 µM | –
9 | CN1c2ccccc2C(=O)NC12CCN(Cc1ccccc1)CC2 | > 200 µM | 120 µM | –
10 | CC(C)(C)CC(C)(C)c1cc2c(O)c(c1)Cc1cc(C(C)(C)CC(C)(C)C)cc(c1O)Cc1cc(C(C)(C)CC(C)(C)C)cc(c1O)Cc1cc(C(C)(C)CC(C)(C)C)cc(c1O)Cc1cc(C(C)(C)CC(C)(C)C)cc(c1O)Cc1cc(C(C)(C)CC(C)(C)C)cc(c1O)C2 | > 7.24 µM | > 7.24 µM | –
11 | NC(=S)N/N=C/c1cc(=O)c2cc(Cl)ccc2o1 | > 66.1 µM | > 66.1 µM | –
12 | CC(C)C(NC(=O)CNC(=O)C1CCCN1C(=O)C(NC(=O)OC(C)(C)C)C(C)C)C(=O)NCC(=O)OCc1ccccc1 (stereo not given) (Boc-VPGVG-OBn; configuration not given here) | > 200 µM | 117 µM | –
13 | C=CCSSSCC=C | > 120 µM | 63.1 µM | –
14 | CC(C)=NNC1=NC(C)(C)P(=O)(N2CCCC2C(=O)O)S1 (stereo not given) | > 135 µM | 132 µM | –
15 | CCOC(=O)C1=NN(c2ccccc2)C(=O)/C1=C\N1C(=O)/C(=C/c2cccc(O)c2)SC1=S | > 200 µM | 38.9 µM | –
16 | Cc1ccc(C2SC(N)=Nc3c2c(C)nn3C(=O)c2ccc(Cl)cc2)cc1 (stereo not given) | – | – | inactive
17 | Cc1ccc(NC(=O)CC2Sc3ccccc3NC2=O)cc1C (stereo not given) | > 6.17 µM | > 6.17 µM | –
18 | Cc1nc2ccccc2c(=O)n1CC(=O)O | – | – | inactive
19 | COC(=O)C1C2CC3C1C3C2C(=O)OC (stereo not given) | > 200 µM | > 200 µM | –
20 | O=[N+]([O-])c1cccc(S(=O)(=O)SSS(=O)(=O)c2cccc([N+](=O)[O-])c2)c1 | > 40.7 µM | > 40.7 µM | –
21 | [O-][n+]1onc2c1/C(=N/O)CCC2 | > 200 µM | > 200 µM | –
22 | COC(=O)c1cc(C(=CC(=O)OC(C)(C)C)c2cc(Cl)c(OC)c(C(=O)OC)c2)cc(Cl)c1OC | > 100 µM | 14.1 µM | –

Row | Structure (SMILES) | EC50 | IC50 | outcome
23 | S=C1NC(/C=C/c2ccccc2)Nc2ccccc21 (stereo not given) | > 26.9 µM | > 26.9 µM | –
24 | Cc1nc2ccccc2c(=O)n1NC(=O)c1ccccc1[N+](=O)[O-] | > 200 µM | > 200 µM | –
25 | COC(=O)N1C2C3CC4C2C4C3N1C(=O)OC | – | – | inactive
26 | C#CC1(O)CCC2C3CCc4cc(OC)ccc4C3CCC21C (stereo not given) | > 200 µM | 74.1 µM | –
27 | N#CC(c1ccccc1)[P+](c1ccccc1)(c1ccccc1)c1ccccc1 (stereo not given) | > 200 µM | 141 µM | –
28 | O=C(/C=C/c1cccc([N+](=O)[O-])c1)c1ccccc1 | > 20.4 µM | 11.5 µM | –
29 | N#CCCN(CCC#N)Cc1c(O)c(O)c(CN(CCC#N)CCC#N)c2ccccc12 | 115 µM | 126 µM | –
30 | O=c1nc2cc(-c3ccccc3)[nH]c2nn1-c1c(Cl)cc(Cl)cc1Cl | > 91.2 µM | 1.17 µM | –
31 | NC(=O)NC(=O)C1CCC(=O)N1S(=O)(=O)c1ccc(Cl)cc1 (stereo not given) | > 724 µM | 141 µM | –
32 | COC(=O)c1c2c(cc3c1CC1(Cc4cc5c(c(C=O)c4C1)CCCC5)C3)CCCC2 (stereo not given) | > 200 µM | 24.5 µM | –
33 | CCC12OC(=O)C34CC(C(=O)N(CCc5c3[nH]c3ccccc53)C41)C2I (stereo not given) | – | – | inactive
34 | CC(=O)Nc1ccc(/C=c2\sc3nnc(/C=C/c4ccccc4)n3c2=O)cc1 | > 93.3 µM | > 93.3 µM | –
35 | O=C1CSC(=S)N1c1ccccc1 | > 240 µM | 178 µM | –
36 | c1ccc2c(c1)nnn2CNc1ccc(N2CCCCC2)cc1 | > 200 µM | 51.3 µM | –
37 | CCCC[C@H]1[C@@H](OCOc2ccccc2)COC(=O)N1[C@H](C)c1ccccc1 | > 200 µM | 21.4 µM | –
38 | O=C(Nc1ccc2c(O)c(N=Nc3ccc4c(O)cc(S(=O)(=O)O)cc4c3)c(S(=O)(=O)O)cc2c1)c1ccccc1 | 18.6 µM | 50.1 µM | –
39 | [N-]=[N+]=CC(=O)c1ccccc1C#CCCc1ccccc1 | 46.8 µM | 67.6 µM | –
40 | COC1(OC)C2(Cl)C(Cl)=C(Cl)C1(Cl)C1C=CC=CC12 (stereo not given) | – | – | inactive
41 | CCC(CC)(C(=O)O)C(=O)O | > 200 µM | > 200 µM | –
42 | COCN1C(=O)[C@@H]2CCCN2C(=O)c2cc([N+](=O)[O-])ccc21 | > 200 µM | 102 µM | –
43 | CC(=O)OC(Cn1cncn1)(Cn1cncn1)c1ccc(Cl)cc1Cl | > 200 µM | > 200 µM | –
44 | O=c1cc(-c2ccccc2)oc2c(-c3cc(Cl)cc4c(=O)cc(-c5ccccc5)oc34)cc(Cl)cc12 | > 200 µM | 38.9 µM | –

Row | Structure (SMILES) | EC50 | IC50 | outcome
45 | O=C(CCc1nnc2s/c(=C\c3ccccc3Cl)c(=O)n12)Nc1cc(Cl)ccc1Cl | > 525 µM | > 525 µM | –
46 | COC(=O)c1c(C)cccc1/C=C1\Cc2cc(C)cc(C)c2C1=O | > 200 µM | 151 µM | –
47 | CCOC(=O)c1c(SC(=O)/C=C/c2ccccc2)n(-c2ccccc2)c(=S)n(-c2ccccc2)c1=O | > 200 µM | 79.4 µM | –
48 | S=C1N(/N=C/c2c3ccccc3cc3ccccc23)C(=Nc2ccccc2)C(=Nc2ccccc2)N1c1ccccc1 | > 200 µM | > 200 µM | –
49 | CCOC(=O)/C=C/c1ccc(N(C)C)cc1 | > 33.1 µM | > 33.1 µM | –
50 | Cc1ccc(NC(=O)C(=O)C(C(=O)/C=C/c2ccccc2)C2OC(=O)c3ccccc32)c(C)c1 (stereo not given) | > 427 µM | 63.1 µM | –
51 | Cc1ccc2nc(C=Nc3ccccc3Cl)cc(C)c2c1 | > 200 µM | 10.5 µM | –
52 | CN(C)c1ccc(/C=C2/SC(=S)NC2=O)cc1 | > 38 µM | > 38 µM | –
53 | CC(C)(NO)/C(=N\O)c1ccccc1 | > 200 µM | > 200 µM | –
54 | Cc1cn(COCC[Se]c2ccccc2)c(=O)[nH]c1=O | 186 µM | > 200 µM | –
55 | COc1cc2c(c3[nH]cc(C(=O)O)c(=O)c13)NC(=O)CS2 | > 200 µM | > 200 µM | –
56 | CCCC(Cc1ccccc1)N1CCCC1 (stereo not given) | > 200 µM | > 200 µM | –
57 | CC(C)=CCC[C@@H](C)c1c(O)c(O)c(C)c2nc3ccccc3nc12 | > 200 µM | 5.89 µM | –
58 | CN1CCCNCCN(CCc2ccccn2)CCCN(C)CC1 | > 132 µM | > 132 µM | –
59 | CC1=NN(C(=O)c2ccccc2O)C(=O)C1N=Nc1ccccc1C(=O)O (stereo not given) | – | – | inactive
60 | CC12CC(=O)NC(=O)N1CCS2 (stereo not given) | 214 µM | 562 µM | –
61 | COC(=O)CC1NC(=O)C1C(C)(OC)OC (stereo not given) | 191 µM | 251 µM | –
62 | CC(C)=C1C=C2CC[C@@H]3[C@](C)(CCC[C@@]3(C)C(=O)O)[C@H]2CC1 | > 200 µM | 105 µM | –
63 | N#CC12CCC(O)C(CC1)C2=O (stereo not given) | – | – | inactive
64 | O=C1C2C3C=CC(C3)C2C2C3C=CC(C3)C12 (stereo not given) | > 324 µM | > 324 µM | –
